Experimental data reported in PMC9323974, “Palladium(II) Complexes of Substituted Salicylaldehydes: Synthesis, Characterization and Investigation of Their Biological Profile” (Pharmaceuticals, 2022).
Several values for one entry are separate records, joined by “and”; a condition that tells them apart may be missing. Identical values can stand only once. Like-named read-outs stand apart in the source and are kept apart here.

Experiments:
[1] = test system: S. aureus, B. subtilis, E. coli, X. campestris; test: MIC stated for all tested bacterial strains; format: cell-based; settings: all tested microbes
Experimental: S2 Antibacterial activity
The antimicrobial activity of the compounds was evaluated by determining their respective MIC values towards two Gram–(–) (Escherichia coli NCTC 29212 (E. coli) and Xanthomonas campestris ATCC 1395 (X. campestris)) and two Gram–(+) (Staphylococcus aureus ATCC 6538 (S. aureus) and Bacillus subtilis ATCC 6633 (B. subtilis)) bacterial species. Cultures of these microbial strains were grown on a rich selective agar medium and stored at 4°C. The selective media used were Nutrient Agar or Broth for B. subtilis and S. aureus, Yeast Mold Agar or Broth for X. campestris and Luria Agar or Broth for E. coli. Cells picked from the surface of the stored cultures were used to initiate liquid pre–cultures of the same selective medium at an initial turbidity of roughly 1 McFarland unit. Pre–cultures were incubated for 24 h in a rotary shaking incubator and subsequently they were used to inoculate the test cultures used for the determination of MIC at an initial turbidity of 0.5 McFarland units. The test cultures consisted of Mueller –Hinton broth (Deben Diagnostics Ltd) containing different concentrations of the compounds.
Different concentrations were achieved as follows: the compounds were freshly dissolved in DMSO to a concentration of 1 mg mL–1 and they were diluted with DMSO, using the method of progressive double dilution. Therefore, working solutions with decreasing concentrations of the compounds under investigation were achieved. The working solutions were subsequently diluted to the final desired concentration by addition to the growth medium at a proportion of 2:98. MIC values were determined as the lowest concentrations of the tested compounds that inhibited visible growth of each respective organism after a 24 h incubation [ S3]. Bacterial growth was determined by measuring the turbidity of appropriately diluted cultures at 600 nm with reference to equally diluted sterile growth medium and the inhibition achieved was calculated by comparing the turbidity of each culture to the average of the turbidity of three non–inhibited cultures. All test cultures were grown in triplicates and for the determination of MIC, growth had to be inhibited in at least two cultures of the triplicate. Incubation temperature at all stages was 37°C except for X. campestris that was cultivated at 28°C [S4].

[2] = biological target: CT DNA; settings: cited from earlier work
[3] = test system: EB-DNA adduct (CT DNA); settings: cited from earlier work
[4] = biological target: T1, BSA (Bos taurus, UniProt P02769); settings: cited from earlier work
T1 construct: purchased Sigma-Aldrich Co
T1 sequence (P02769 25-607): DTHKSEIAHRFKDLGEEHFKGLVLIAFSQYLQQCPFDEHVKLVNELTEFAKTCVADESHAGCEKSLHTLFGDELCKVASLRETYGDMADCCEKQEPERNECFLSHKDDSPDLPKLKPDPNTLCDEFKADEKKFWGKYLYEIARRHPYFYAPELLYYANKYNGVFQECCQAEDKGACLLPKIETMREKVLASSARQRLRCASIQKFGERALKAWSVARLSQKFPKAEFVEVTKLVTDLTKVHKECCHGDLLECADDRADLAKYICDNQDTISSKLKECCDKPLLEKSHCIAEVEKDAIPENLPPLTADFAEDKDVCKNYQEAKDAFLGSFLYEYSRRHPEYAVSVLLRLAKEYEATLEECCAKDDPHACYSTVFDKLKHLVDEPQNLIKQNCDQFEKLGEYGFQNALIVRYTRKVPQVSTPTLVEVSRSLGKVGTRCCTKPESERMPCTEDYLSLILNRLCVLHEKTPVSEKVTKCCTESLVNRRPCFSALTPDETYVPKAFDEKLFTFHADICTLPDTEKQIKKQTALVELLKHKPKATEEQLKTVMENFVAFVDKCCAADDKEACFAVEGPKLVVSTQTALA

| Structure (SMILES) | MIC ([1]; read-out: MIC) [µg/mL] | Kb (DNA-binding constant) [2] | KSV (Stern–Volmer constant), EB-DNA [3] | kq (EB-DNA quenching constant) [3] | ΔΙ/Ι0 (%) EB-DNA fluorescence quenching [3] [%] | K BSA-binding constant [4] | kq BSA-quenching constant [4] | MIC [1] |
| --- | --- | --- | --- | --- | --- | --- | --- | --- |
| CCN(CC)c1ccc(C=O)c(O)c1 [4-Et2N-saloH, 4-diethylamino-salicylaldehyde, reference compound] | > 200 |  |  |  |  |  |  |  |
| COc1ccc(C=O)c(O)c1 [4-OMe-saloH, 4-methoxy-salicylaldehyde, reference compound] | > 200 | 9.25 (±0.12) × 10^5 M^−1 | 5.19 (±0.17) × 10^4 M^−1 | 2.26 (±0.07) × 10^12 M^−1s^−1 | 62.5 | 4.11 (±0.23) × 10^5 M^−1 | 1.16 (±0.14) × 10^13 M^−1 s^−1 |  |
| O=Cc1cc(Br)cc(Br)c1[O][Pd][O]c1c(Br)cc(Br)cc1C=O [Complex 2, [Pd(3,5-diBr-salo)2]] |  |  |  |  |  |  |  | 25 μg/mL and 38 μM |
